Test results: patent US20070193894A1, “Container for constituting a formulation in liquid form” (IDD-EAL MANUFACTURING COMPANY LIMITED, priority 2004, published 2007)

Tests used:
[1] = Acetaminophen formulation blends tested in different volumes of water and containers; assay type: physicochemical; details: conclusion of Example 13
Description: Blends of the above components were tested in three different volumes df water: 20 ml, 40 ml and 80 ml in different containers.
In the case of the second formulation a single volume (20 ml) in two different containers were investigated, namely a small bottle and a sampling container with cap.

[2] = Ibuprofen formulation test: behaviour in water; assay type: physicochemical; details: conclusion of Example 14
Description: Two volumes of water were tested, namely 20 ml and 40 ml in two different containers, namely a small bottle and a beaker. One volume of water was tested, namely 20 ml, and a single container, namely a small bottle. In the case of the above two formulations, the behaviour of ibuprofen in water was tested and the generation of bubbles was optimised by increasing the quantity of citric acid, sodium bicarbonate and potassium hydrogen carbonate.

remaining in suspension in water [1] | stability in water [1] | remaining in suspension in water [2] | stability in water [2] | SMILES
does not remain in suspension | not stable in water | – | – | CC(=O)Nc1ccc(O)cc1 [acetaminophen, Acetaminophen]
– | – | does not remain in suspension | not stable in water | CC(C)Cc1ccc(C(C)C(=O)O)cc1 (stereo not drawn) [ibuprofen, 4-Isobutyl-Alpha-Methylphenylacetic Acid (Ibuprofen)]
